Assay results: patent publication US8293796B2, “Modulator” (University College London, priority 2004, dated 2012)
Entries after “also recorded” stand apart in the source; their conditions may differ. Read-outs that look alike come from different tables or passages of the source.

Legend:
[1] = molecular target: T1, CB1 receptor (Mus musculus, UniProt P47746); test: vas deferens inhibition of contractions (cannabinoid receptor modulating activity)
T1 construct: from tissue; host or cells: mouse vas deferens (isolated tissue preparation)

[2] = test system: wildtype mice; test: hypothermia and hypomotility (temperature and 5 minute motility in openfield activity chamber) in wildtype mice; format: in vivo, mouse
Description: Many CB1 agonists are known to induce psychotrophic associated “tetrad effects” due to central binding to CB receptors [Howlett, A. C. et al, International Union of Pharmacology. XXVII, Pharmacol. Rev. 2002, 54, 161-202]. Studies were undertaken to investigate whether the compounds of the present invention also bound to central CB1 receptors. This is assessed by measuring the ability of the compounds to induce sedation, ptosis, hypomotility, catalepsy and hypothermia in normal mice [Brooks, J. W. et al, Eur. J. Pharmacol. 2002, 439, 83-92], following i.v., i.p. and oral administration.
A CNS excluded compound provides a tool for examining if a component of a cannabinoid anti-spastic effect is mediated via peripheral CB receptors. […] As stated above there is no established role for peripheral cannabinoid receptors in the control of spasticity, however, spasticity is likely to be a product of nerve damage in the spinal cord, at least in EAE, [Baker, D. et al, FASEB J. 2001, 15, 300-302; Baker, D. et al, J. Neuroimmunol. 1990, 28, 261-270] and aberrant signals to and from the musculature are likely, at least in part to contribute to the muscle spasms occurring in spasticity.

[3] = test system: CREAE mice; test: assessment of spasticity in CREAE mice (resistance to full flexion of hindlimbs against a strain gauge); format: in vivo, mouse
Description: Spasticity developed following the development of chronic EAE induced by injection of mouse spinal cord homogenate in Freund's complete adjuvant on day 0 & 7. This occurred 60-80 days post-induction in wildtype ABH.Cnr1+/+ mice and 30-40 days post-induction in CB1 receptor gene (Cnr1)-deficient ABH.Cnr1−/− mice). Spasticity was assessed by resistance to full flexion of hindlimbs against a strain gauge [Baker et al 2000], before and after treatment with either the full CB1/CB2 agonist CP55,940 or full CB1/CB2/“CB3” agonist injected intraperitoneally or compound (16) injected intravenously in vehicle (alcohol:cremophor:PBS (1:1:18)). […] Statistical analysis was performed on raw data and were analysed pairwise from baseline levels (*** P<0.001).
Further studies were undertaken using cannabinoid knockout mice, including CB1, CB2, VR-1, FAAH and conditional CB1 knockout mice. […] Spasticity is assessed (n=6-7/group) by resistance to hindlimb flexion using a strain gauge [Baker, D. et al, Nature 2000, 404, 84-87]. Animals serve as their own controls and will be analysed in a pairwise fashion. […] Low doses of CB1 agonists and CNS active CP55,940, as control, are locally (subcutaneous, intra-muscularly) administered into spastic ABH mice and the lack of activity in a contralateral limb analysed [Fox, A. et al, Pain 2001, 92, 91-100]. […]

T1 sequence (P47746 whole entry): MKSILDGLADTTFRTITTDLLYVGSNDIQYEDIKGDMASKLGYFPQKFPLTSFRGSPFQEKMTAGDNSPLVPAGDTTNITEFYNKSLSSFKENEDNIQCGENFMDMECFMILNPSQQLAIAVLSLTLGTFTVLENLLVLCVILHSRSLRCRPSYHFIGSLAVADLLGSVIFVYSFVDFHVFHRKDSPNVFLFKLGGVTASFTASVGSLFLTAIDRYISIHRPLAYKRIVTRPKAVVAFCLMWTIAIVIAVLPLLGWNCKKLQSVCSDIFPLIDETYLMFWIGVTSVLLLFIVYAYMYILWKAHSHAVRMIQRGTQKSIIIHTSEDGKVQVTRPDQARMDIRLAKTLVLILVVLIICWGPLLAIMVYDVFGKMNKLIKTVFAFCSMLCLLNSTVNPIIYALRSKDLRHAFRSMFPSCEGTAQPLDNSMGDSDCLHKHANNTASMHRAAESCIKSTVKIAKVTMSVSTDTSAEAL

SMILES | effect of CB1 antagonist SR141716A on the compound's effect in vas deferens ([1]; in presence of SR141716A) | IC50 ([1]; mouse vas deferens preparation, FIG. 1, read-out: IC50, vas deferens preparation) [nM] | IC50 ([1]; rat vas deferens, FIG. 1 legend, read-out: IC50, inhibition of contractions) [nM] | CNS effects: hypothermia and hypomotility ([2]; wildtype mice, 20 mg/kg i.v.) | CNS effects: hypothermia and hypomotility ([2]; wildtype/normal mice, 1 mg/kg, 20 min after injection, 1 mg/kg) | anti-spastic activity ([3]; administered in PBS alone (not shown)) | anti-spastic activity ([3]; wildtype ABH mice with CREAE, injected intravenously in alcohol:cremophor:PBS (1:1:18), 10 minutes after administration) | CNS effects: temperature and motility ([2]; wildtype mice, 20 min after injection, dose not given)
CC(CO)NC(=O)c1cccc(/C=C\CCCC(=O)N(C)C)c1 (racemic) [Compound 16, 3-(5-Dimethylcarbamoyl-pent-1-enyl)-N-(2-hydroxy-1-methyl-ethyl)benzamide] | neutralised by the CB1-antagonist SR141716A; also recorded: inhibited by the selective CB1 antagonist SR141716A | ~1 | ~0.1 | inactive | inactive; also recorded: no hypothermia or hypomotility was observed | active | significant anti-spastic activity; also recorded: marked effect on spasticity; also recorded: selective inhibition of spasticity without producing CNS effects | –
Cc1c(C(=O)c2cccc3ccccc23)c2cccc3c2n1[C@H](CN1CCOCC1)CO3 [R(+)WIN55,212, reference compound] | – | – | – | – | – | – | – | induced typical cannabinmimetic effects
